Where a name gives a salt, the structure may show the parent alone.
Molecular target: human β-Secretase (Homo sapiens, UniProt P56817)
Assay: TR-FRET assay
Assay type: biochemical
Settings: enzyme (truncated form) 0.3 nM; substrate (Europium)CEVNLDAEFK(Qsy7) 100 nM; pH4.5; 15 minutes at room temperature
Procedure: The enzyme used in the IGEN Cleavage-, Fluorescent-, TR-FRET- and the BiaCore assay is described as follows:
The gene was fused to the Fc domain of IgG1 (affinity tag) and stably cloned into HEK 293 cells. Purified sBACE-Fc is stored in Tris buffer, pH 9.2 and has a purity of 95%.
Dilute the enzyme (truncated form) to 6 μg/mL (stock 1.3 mg/mL) and the substrate (Europium)CEVNLDAEFK(Qsy7) to 200 nM (stock 60 μM) in reaction buffer (NaAcetate, chaps, triton x-100, EDTA pH4.5). The Biomek FX is used for all liquid handling and the enzyme and substrate solutions are kept on ice until they are placed in Biomek FX. Enzyme (9 μl) is added to the plate then 1 μl of compound in dimethylsulphoxide is added, mixed and pre-incubated for 10 minutes. Substrate (10 μl) is then added, mixed and the reaction proceeds in the dark for 15 minutes at room temperature. The reaction is stopped with the addition of Stop solution (7 μl, NaAcetate pH 9). The fluorescence of the product is measured on a Wallac Victor II plate reader with an excitation wavelength of 340 nm and an emission wavelength of 615 nm. The assay is done in a Costar 384 well round bottom, low volume, non-binding surface (Corning #3676). The final concentration of the enzyme is 0.3 nM; the final concentration of substrate is 100 nM (Km of ˜250 nM). The dimethylsulphoxide control defines the 100% activity level and 0% activity is defined by exclusion of the enzyme, only using reaction buffer instead.

Sequence of human β-Secretase (P56817 22-460): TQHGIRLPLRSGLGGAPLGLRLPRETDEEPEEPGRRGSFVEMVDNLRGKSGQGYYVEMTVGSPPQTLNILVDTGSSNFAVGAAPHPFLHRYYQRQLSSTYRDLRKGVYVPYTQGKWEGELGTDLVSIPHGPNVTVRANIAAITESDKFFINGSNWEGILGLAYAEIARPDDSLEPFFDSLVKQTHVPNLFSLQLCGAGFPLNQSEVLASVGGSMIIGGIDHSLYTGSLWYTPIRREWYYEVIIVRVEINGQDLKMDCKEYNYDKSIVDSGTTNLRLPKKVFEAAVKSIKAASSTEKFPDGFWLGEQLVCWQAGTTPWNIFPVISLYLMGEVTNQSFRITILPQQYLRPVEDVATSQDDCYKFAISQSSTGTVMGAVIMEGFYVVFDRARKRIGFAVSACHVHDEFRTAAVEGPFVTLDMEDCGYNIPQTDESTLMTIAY

| IC50 [nM] | SMILES |
| --- | --- |
| 80 | CN1C(=O)C(c2ccc([Si](C)(C)C)cc2)(c2cccc(-c3cnccn3)c2)N=C1N (stereo not shown) [Example 24, 2-amino-3-methyl-5-(3-pyrazin-2-ylphenyl)-5-(4-trimethylsilylphenyl)imidazol-4-one] |
| 84 | COc1cccc(-c2cccc(C3(c4ccc([Si](C)(C)C)cc4)N=C(N)N(C)C3=O)c2)c1 (stereo not shown) [Example 12, 2-Amino-5-(3′-methoxybiphenyl-3-yl)-3-methyl-5-[4-(trimethylsilyl)phenyl]-3,5-dihydro-4H-imidazol-4-one] |
| 163 | CN1C(=O)C(c2cccc(-c3cncc(Cl)c3)c2)(c2cccc([Si](C)(C)C)c2)N=C1N (stereo not shown) [Example 27, 2-amino-4-(3-(5-chloropyridin-3-yl)phenyl)-1-methyl-4-(3-(trimethylsilyl)phenyl)-1H-imidazol-5(4H)-one] |
| 118 | CN1C(=O)C(c2ccc([Si](C)(C)C)cc2)(c2cccc(-c3cccnc3)c2)N=C1N (stereo not shown) [Example 17, 2-amino-3-methyl-5-(3-pyridin-3-ylphenyl)-5-(4-trimethylsilylphenyl)imidazol-4-one acetic acid salt] |
| 1530 | COc1cccc(-c2cccc(C3(c4cccc([Si](C)(C)C)c4)N=C(N)N(C)C3=O)c2)n1 (stereo not shown) [Example 31, 2-amino-4-(3-(6-methoxypyridin-2-yl)phenyl)-1-methyl-4-(3-(trimethylsilyl)phenyl)-1H-imidazol-5(4H)-one] |
| 460 | CN1C(=O)C(c2ccc([Si](C)(C)C)cc2)(c2cccc(-c3cnccc3C#N)c2)N=C1N (stereo not shown) [Example 21, 3-[3-[2-amino-1-methyl-5-oxo-4-(4-trimethylsilylphenyl)imidazol-4-yl]phenyl]pyridine-4-carbonitrile Acetic Acid Salt] |
| 180 | CN1C(=O)C(c2ccc([Si](C)(C)C)cc2)(c2cccc(-c3cncc(F)c3)c2)N=C1N (stereo not shown) [Example 18, 2-amino-5-[3-(5-fluoropyridin-3-yl)phenyl]-3-methyl-5-(4-trimethylsilylphenyl)imidazol-4-one acetic acid salt] |
| 41 | CN1C(=O)C(c2ccc([Si](C)(C)C)cc2)(c2cccc(-c3cncnc3)c2)N=C1N (single isomer, unassigned) [Example 15 (isomer 1), 2-amino-3-methyl-5-(3-pyrimidin-5-ylphenyl)-5-[4-(trimethylsilyl)phenyl]-3,5-dihydro-4H-imidazol-4-one] |
| > 10000 | CN1C(=O)C(c2ccc([Si](C)(C)C)cc2)(c2cccc(-c3cncnc3)c2)N=C1N (single isomer, unassigned) [Example 15 (isomer 2), 2-amino-3-methyl-5-(3-pyrimidin-5-ylphenyl)-5-[4-(trimethylsilyl)phenyl]-3,5-dihydro-4H-imidazol-4-one] |
| 202 | CN1C(=O)C(c2cccc(-c3cccnc3)c2)(c2cccc([Si](C)(C)C)c2)N=C1N (stereo not shown) [Example 29, 2-amino-1-methyl-4-(3-(pyridin-3-yl)phenyl)-4-(3-(trimethylsilyl)phenyl)-1H-imidazol-5(4H)-one] |
| 135 | CN1C(=O)C(c2cccc(-c3cncnc3)c2)(c2cccc([Si](C)(C)C)c2)N=C1N (stereo not shown) [Example 26, 2-amino-1-methyl-4-(3-(pyrimidin-5-yl)phenyl)-4-(3-(trimethylsilyl)phenyl)-1H-imidazol-5(4H)-one] |
| 182 | CN1C(=O)C(c2cccc(-c3cccnc3F)c2)(c2cccc([Si](C)(C)C)c2)N=C1N (stereo not shown) [Example 30, 2-amino-4-(3-(2-fluoropyridin-3-yl)phenyl)-1-methyl-4-(3-(trimethylsilyl)phenyl)-1H-imidazol-5(4H)-one] |
| 81 | CN1C(=O)C(c2ccc([Si](C)(C)C)cc2)(c2cccc(-c3cccnc3F)c2)N=C1N (stereo not shown) [Example 13, 2-Amino-5-[3-(2-fluoropyridin-3-yl)phenyl]-3-methyl-5-[4-(trimethylsilyl)phenyl]-3,5-dihydro-4H-imidazol-4-one] |
| 23 | COc1cncc(-c2cccc(C3(c4ccc([Si](C)(C)C)cc4)N=C(N)N(C)C3=O)c2)c1 (stereo not shown) [Example 16, 2-amino-5-[3-(5-methoxypyridin-3-yl)phenyl]-3-methyl-5-(4-trimethylsilylphenyl)imidazol-4-one acetic acid salt] |
| 2740 | CN1C(=O)C(c2ccc([Si](C)(C)C)cc2)(c2cccc(-c3cnn(C)c3)c2)N=C1N (stereo not shown) [Example 22, 2-amino-3-methyl-5-[3-(1-methylpyrazol-4-yl)phenyl]-5-(4-trimethylsilylphenyl)imidazol-4-one Acetic Acid Salt] |
| 2260 | Cc1ncc(-c2cccc(C3(c4ccc([Si](C)(C)C)cc4)N=C(N)N(C)C3=O)c2)cn1 (stereo not shown) [Example 23, 2-amino-3-methyl-5-[3-(2-methylpyrimidin-5-yl)phenyl]-5-(4-trimethylsilylphenyl)imidazol-4-one acetic acid salt] |
| 86 | CN1C(=O)C(c2cccc(-c3cnccn3)c2)(c2cccc([Si](C)(C)C)c2)N=C1N (stereo not shown) [Example 32, 2-amino-1-methyl-4-(3-(pyrazin-2-yl)phenyl)-4-(3-(trimethylsilyl)phenyl)-1H-imidazol-5(4H)-one] |
| 118 | CN1C(=O)C(c2ccc([Si](C)(C)C)cc2)(c2cccc(-c3cncc(C#N)c3)c2)N=C1N (stereo not shown) [Example 19, 5-[3-[2-amino-1-methyl-5-oxo-4-(4-trimethylsilylphenyl)imidazol-4-yl]phenyl]pyridine-3-carbonitrile acetic acid salt] |
| 437 | CN1C(=O)C(c2ccc([Si](C)(C)C)cc2)(c2cccc(-c3ccc(F)nc3)c2)N=C1N (stereo not shown) [Example 20, 2-amino-5-[3-(6-fluoropyridin-3-yl)phenyl]-3-methyl-5-(4-trimethylsilylphenyl)imidazol-4-one Acetic Acid Salt] |
| 107 | CN1C(=O)C(c2ccc([Si](C)(C)C)cc2)(c2cccc(-c3cncnc3)c2)N=C1N (racemic) [Example 14, 2-Amino-3-methyl-5-(3-pyrimidin-5-ylphenyl)-5-[4-(trimethylsilyl)phenyl]-3,5-dihydro-4H-imidazol-4-one] |
| 278 | CN1C(=O)C(c2cccc(-c3ccc(F)nc3)c2)(c2cccc([Si](C)(C)C)c2)N=C1N (stereo not shown) [Example 28, 2-amino-4-(3-(6-fluoropyridin-3-yl)phenyl)-1-methyl-4-(3-(trimethylsilyl)phenyl)-1H-imidazol-5(4H)-one] |
| 460 | CN1C(=O)C(c2ccc([Si](C)(C)C)cc2)(c2cccc(-c3cnc(F)nc3)c2)N=C1N (stereo not shown) [Example 25, 2-amino-5-[3-(2-fluoropyrimidin-5-yl)phenyl]-3-methyl-5-(4-trimethylsilylphenyl)imidazol-4-one] |
